From PubChem BioAssay AID1259408 (Genetic Toxicology Data Bank (GENE-TOX), 2018)
Activity calls are given as the source filed them. The rule behind the calls is not given here.

Tested on: GENE-TOX genotoxicity assays, various organisms and cells
Assay: GENE-TOX mutagenicity studies
[1] = Species/Cell Type: Salmonella typhimurium (one or more of the five standard strains: TA98, TA100, TA1535, TA1537, and TA1538), Assay Type: Histidine reverse gene mutation, Ames assay, Assay Code: SAL+, Evaluation Type: Evaluation A (Pre-1980)
[2] = Species/Cell Type: Rodents, Sex: Male, Assay Type: Dominant lethal test, Assay Code: DLT-, Evaluation Type: Evaluation A (Pre-1980)

Structure (SMILES): O=C1[C@H]2CC=CC[C@H]2C(=O)N1SC(Cl)(Cl)Cl
- mutagenic call (Species/Cell Type: Aspergillus nidulans, Assay Type: Aneuploidy, chromosome aberrations, Assay Code: ASN-, Evaluation Type: Evaluation A (Pre-1980)): inactive; negative
- mutagenic call (Species/Cell Type: Aspergillus nidulans, Assay Type: Mitotic recombination, Assay Code: ASG+, Evaluation Type: Evaluation A (Pre-1980)): active; positive
- mutagenic call (Species/Cell Type: Bacillus subtilis (H17 vs M45), Assay Type: Rec-assay, spot test, DNA effects (bacterial DNA repair), Assay Code: REW+, Evaluation Type: Evaluation A (Pre-1980)): active; positive
- mutagenic call (Species/Cell Type: Chinese hamster lung (V79) cells, Assay Type: Forward gene mutation at the HPRT or ouabain locus, Assay Code: V79+, Evaluation Type: Evaluation A (Pre-1980)): active; positive
- mutagenic call (Species/Cell Type: Chinese hamster ovary (CHO) cells, Assay Type: Forward gene mutation at the HPRT locus, Assay Code: CHO+, Evaluation Type: Evaluation B (Post-1980)): active; positive
- mutagenic call (Species/Cell Type: Drosophila melanogaster, Assay Type: Sex-linked recessive lethal gene mutation, Assay Code: SRL+, Evaluation Type: Evaluation A (Pre-1980)): active; positive
- mutagenic call (Species/Cell Type: Drosophila melanogaster, Sex: Male, Assay Type: Heritable translocation test, chromosome aberrations, Assay Code: DHTT, Evaluation Type: Evaluation A (Pre-1980)): no conclusion
- mutagenic call (Species/Cell Type: Escherichia coli WP2, Assay Type: Tryptophan reverse gene mutation, Assay Code: WP2+, Evaluation Type: Evaluation A (Pre-1980)): active; positive
- mutagenic call (Species/Cell Type: Escherichia coli WP2 UVRA, Assay Type: Tryptophan reverse gene mutation, Assay Code: WPU+/-*, Activation: With metabolic activation, Evaluation Type: Evaluation A (Pre-1980)): inactive; positive without activation, negative with activation
- mutagenic call (Species/Cell Type: Escherichia coli polA (W3119 vs P3478), Assay Type: Rec-assay, DNA effects (bacterial DNA repair), Assay Code: RE1+, Evaluation Type: Evaluation A (Pre-1980)): active; positive
- mutagenic call (Species/Cell Type: Human diploid fibroblasts, Assay Type: Unscheduled DNA synthesis (UDS) in vitro, DNA effects, Assay Code: UDH-, Evaluation Type: Evaluation A (Pre-1980)): inactive; negative
- mutagenic call (Species/Cell Type: Human lymphocytes, Assay Type: Sister-chromatid exchange (SCE) in vitro, Assay Code: SCL+, Evaluation Type: Evaluation B (Post-1980)): active; positive
- mutagenic call (Species/Cell Type: Human, Assay Type: Sister-chromatid exchange (SCE) in vitro, Assay Code: SC1+, Evaluation Type: Evaluation B (Post-1980)): active; positive
- mutagenic call (Species/Cell Type: Mammalian polychromatic erythrocytes, Assay Type: Micronucleus test, chromosome aberrations, Assay Code: MNT+, Evaluation Type: Evaluation B (Post-1980)): active; positive
- mutagenic call (Species/Cell Type: Mouse, Sex: Male, Assay Type: Heritable translocation test, chromosome aberrations, Assay Code: HTT-, Evaluation Type: Evaluation A (Pre-1980)): inactive; negative
- call (Species/Cell Type: Nonhuman, Assay Type: In vivo carcinogenicity studies, Assay Code: CCG+L, Evaluation Type: Evaluation A (Pre-1980)): active; positive
- mutagenic call (Species/Cell Type: Nonhuman, Assay Type: Sister-chromatid exchange (SCE) in vitro, Assay Code: SC2+D, Dose Response: With dose response, Evaluation Type: Evaluation B (Post-1980)): active; positive
- mutagenic call (Species/Cell Type: Rodents, Sex: Male, Assay Type: Dominant lethal test, Assay Code: DLT+, Evaluation Type: Evaluation A (Pre-1980)): active; positive
- mutagenic call (Species/Cell Type: Saccharomyces cerevisiae, Assay Type: Mitotic recombination or gene conversion, Assay Code: YEC+, Evaluation Type: Evaluation A (Pre-1980)): active; positive
- mutagenic call (Species/Cell Type: Saccharomyces cerevisiae, Assay Type: Mitotic recombination or gene conversion, Assay Code: YEH+, Evaluation Type: Evaluation A (Pre-1980)): active; positive
- mutagenic call [1]: active; positive
- mutagenic call (Species/Cell Type: Salmonella typhimurium, Serratia marcesens, Assay Type: Forward and reverse gene mutation, host-mediated assay, Assay Code: HM2+, Evaluation Type: Evaluation A (Pre-1980)): active; positive
- mutagenic call (Species/Cell Type: Salmonella typhimurium, Assay Type: Forward and reverse gene mutation, body fluid assay, Assay Code: BFU-, Evaluation Type: Evaluation A (Pre-1980)): inactive; negative

Structure (SMILES): CN(C#N)N=O
- mutagenic call (Species/Cell Type: Nonhuman, Assay Type: Chromosome aberrations in vitro, Assay Code: CY&+, Evaluation Type: Evaluation A (Pre-1980)): active; positive
- mutagenic call [1]: active; positive
- mutagenic call (Species/Cell Type: Syrian hamster embryo (SHE) cells, Assay Type: Cell transformation, clonal assay, Assay Code: CTC+, Evaluation Type: Evaluation A (Pre-1980)): active; positive

Structure (SMILES): CNC(=O)C[C@@H](N)C(=O)N[C@@H](C(=O)N[C@@H]1C(=O)N2[C@@H]1SC(C)(C)[C@@H]2C(=O)O)c1ccc(O)cc1
- mutagenic call (Species/Cell Type: Mammalian polychromatic erythrocytes, Assay Type: Micronucleus test, chromosome aberrations, Assay Code: MNTT, Evaluation Type: Evaluation B (Post-1980)): no conclusion

Structure (SMILES): Nc1nccc2c1[nH]c1ccccc12
- mutagenic call (Species/Cell Type: Human, Assay Type: Sister-chromatid exchange (SCE) in vitro, Assay Code: SC1+D, Dose Response: With dose response, Evaluation Type: Evaluation B (Post-1980)): active; positive
- mutagenic call (Species/Cell Type: Nonhuman, Assay Type: Sister-chromatid exchange (SCE) in vitro, Assay Code: SC2T, Evaluation Type: Evaluation B (Post-1980)): no conclusion

Structure (SMILES): O=S(=O)(O)c1cc(-n2nc3ccc4ccccc4c3n2)ccc1/C=C/c1ccccc1
- mutagenic call [2]: inactive; negative
- mutagenic call (Species/Cell Type: Saccharomyces cerevisiae, Assay Type: Mitotic recombination or gene conversion, Assay Code: YECT, Evaluation Type: Evaluation A (Pre-1980)): no conclusion
- mutagenic call (Species/Cell Type: Salmonella typhimurium (one or more of the five standard strains: TA98, TA100, TA1535, TA1537, and TA1538), Assay Type: Histidine reverse gene mutation, Ames assay, Assay Code: SALT, Evaluation Type: Evaluation A (Pre-1980)): no conclusion

Structure (SMILES): CN1CCN(CCCN2c3ccccc3Sc3ccc(S(=O)(=O)N(C)C)cc32)CC1
- mutagenic call [2]: inactive; negative

Structure (SMILES): O=C(O)CSc1ccc2c3c(cccc13)C(=O)c1ccccc1-2
- mutagenic call [1]: active; positive

Structure (SMILES): CCOCc1c(O)cc2c(c1O)C(=O)c1ccccc1C2=O
- mutagenic call [1]: active; positive

Structure (SMILES): CN1CCN(c2ccc3nc(-c4ccc5nc(-c6ccc(O)cc6)[nH]c5c4)[nH]c3c2)CC1
- mutagenic call (Species/Cell Type: Nonhuman, Assay Type: Sister-chromatid exchange (SCE) in vitro, Assay Code: SC2+D, Dose Response: With dose response, Evaluation Type: Evaluation A (Pre-1980)): active; positive
- mutagenic call (Species/Cell Type: Nonhuman, Assay Type: Sister-chromatid exchange (SCE) in vivo, Assay Code: SC3-, Evaluation Type: Evaluation A (Pre-1980)): inactive; negative
- mutagenic call (Species/Cell Type: Nonhuman, Assay Type: Sister-chromatid exchange (SCE) in vivo, Assay Code: SC3T, Evaluation Type: Evaluation B (Post-1980)): no conclusion
